≈ marks a conversion by molar mass, not a printed value.
Legend:
[1] = system: P. mirabilis; assay: Microdilution MIC/MMC with resazurin; assay type: cell-based, Proteus mirabilis; settings: P. mirabilis, compounds 1–8; for MIC: Proteus mirabilis, read-out: MIC
Description: (§1) The antimicrobial activity was evaluated against 15 microorganisms. This included 11 bacterial strains: four standard strains (Staphylococcus aureus ATCC 25923, Bacillus subtilis ATCC 6633, Bacillus pumilus NCTC 8241, and Escherichia coli ATCC 25922) and six clinical or environmental isolates (Staphylococcus aureus, Escherichia coli, Bacillus cereus, Proteus mirabilis, Salmonella enterica, and Klebsiella pneumoniae). One probiotic strain, Bifidobacterium animalis subsp. lactis was tested. In addition, four fungal strains, Candida albicans ATCC 10231, Trichoderma viride ATCC 13233, Aspergillus flavus ATCC 9170, and Fusarium solani ATCC 11712 were tested. The bacterial strains were kept in glycerol stock at −80 °C and the fungal strains in paraffin oil stock at 4 °C.
(§2) Bacterial and yeast suspensions were prepared using the direct colony method, as previously described by Andrews. The turbidity of the initial suspensions was adjusted to match the 0.5 McFarland standard using a densitometer (Biosan, Riga, Latvia), corresponding to approximately 10^8 colony-forming units (CFU)/mL for bacterial cells and 10^6 CFU/mL for yeast cells. Subsequently, 1:100 dilutions of the initial suspensions were prepared in sterile 0.85% saline. Fungal spore suspensions were obtained by gently harvesting spores from agar slopes containing mature mycelial growth. The collected spore suspensions were then diluted 1:1000 in sterile 0.85% saline prior to use.
(§3) Antimicrobial activity was evaluated by determining the minimum inhibitory concentration (MIC) and minimum microbicidal concentration (MMC) using the microdilution plate method with resazurin as an indicator [28]. In the 96-well plates, 100 μL of Mueller–Hinton broth (Torlak, Belgrade, Serbia) for bacterial testing and Sabouraud broth (Torlak, Belgrade, Serbia) for fungal testing were dispensed into each well. The compounds under investigation were initially dissolved in a 10% dimethyl sulfoxide (DMSO) solution, followed by dilution in sterile distilled water, resulting in a working compound solution containing 1% DMSO. A 100 μL aliquot of the stock solution of the tested compound was added to the first row, and twofold serial dilutions were then carried out using a multichannel pipette. The resulting concentration range was from 5 to 0.039 mg/mL. The inoculated microtiter plates were incubated at 37 °C for 24 h for bacteria, at 28 °C for 48 h for yeasts, and at 28 °C for 72 h for molds.
(§4) Each test also included growth control and sterility control. All tests were conducted in duplicate. MIC was defined as the lowest concentration of tested compounds that prevented resazurin color change from blue to pink. For molds, MIC values of the tested compound were determined as the lowest concentration that inhibited visible mycelia growth. MMC was determined by inoculation of the nutrient agar medium by plating […] of samples from wells, where no indicator color change was recorded. At the end of the incubation period, the lowest concentration with no growth (no colony) was defined as MMC.
(§5) Doxycycline, ampicillin and amphotericin B (- Sigma-Aldrich, St. Louis, MO, USA) and ketoconazole (Hemofarm A.D., Vršac, Serbia) were dissolved in a nutrient liquid medium. Doxycycline is a broad-spectrum antibiotic effective against both aerobic and anaerobic Gram-positive and Gram-negative bacteria. Ampicillin, a beta-lactam antibiotic, primarily targets Gram-positive bacteria but also some Gram-negative strains. Amphotericin B is an antifungal drug often used for serious systemic fungal infections and is one of the effective treatments for fungal infections caused by Aspergillus sp. Ketoconazole is an antifungal agent used to inhibit the growth of Candida species.

[2] = system: S. enterica; assay: Microdilution MIC/MMC with resazurin; assay type: cell-based, Salmonella enterica; settings: compounds 1–8; for MIC: Salmonella enterica
Description: as §1, §2, §3, §4, §5

[3] = system: T. viride ATCC 13233; assay: Microdilution MIC/MMC; assay type: cell-based, Trichoderma viride; settings: T. viride ATCC 13233, compounds 1–8; for MIC: Trichoderma viride, ATCC13233, read-out: MIC
Description: as §1, §2, §3, §4, §5

[4] = system: K. pneumoniae; assay: Microdilution MIC/MMC with resazurin; assay type: cell-based, Klebsiella pneumoniae; settings: K. pneumoniae, compounds 1–8; for MIC: Klebsiella pneumoniae, read-out: MIC
Description: as §1, §2, §3, §4, §5

[5] = system: S. aureus ATCC 25923; assay: Microdilution MIC/MMC with resazurin; assay type: cell-based, Staphylococcus aureus; settings: S. aureus ATCC 25923, compounds 1–8; for MIC: Staphylococcus aureus, ATCC25923, read-out: MIC
Description: as §1, §2, §3, §4, §5

[6] = system: S. aureus; assay: Microdilution MIC/MMC with resazurin; assay type: cell-based, Staphylococcus aureus; settings: S. aureus isolate, compounds 1–8; for MIC: Staphylococcus aureus, read-out: MIC
Description: as §1, §2, §3, §4, §5

[7] = system: F. solani ATCC 11712; assay: Microdilution MIC/MMC; assay type: cell-based, Fusarium solani; settings: F. solani ATCC 11712, compounds 1–8; for MIC: Fusarium solani, ATCC11712, read-out: MIC
Description: as §1, §2, §3, §4, §5

[8] = system: E. coli; assay: Microdilution MIC/MMC with resazurin; assay type: cell-based, Escherichia coli; settings: E. coli isolate, compounds 1–8; for MIC: Escherichia coli, read-out: MIC
Description: as §1, §2, §3, §4, §5

[9] = system: E. coli ATCC 25922; assay: Microdilution MIC/MMC with resazurin; assay type: cell-based, Escherichia coli; settings: E. coli ATCC 25922, compounds 1–8; for MIC: Escherichia coli, ATCC25922, read-out: MIC
Description: as §1, §2, §3, §4, §5

[10] = system: A. flavus ATCC 9170; assay: Microdilution MIC/MMC; assay type: cell-based, Aspergillus flavus; settings: A. flavus ATCC 9170, compounds 1–8; for MIC: Aspergillus flavus, ATCC9170, read-out: MIC
Description: as §1, §2, §3, §4, §5

[11] = DPPH radical scavenging assay; settings: mean ± SD
Description: The DPPH assay was used to assess the ability of the tested compounds to scavenge reactive radical species. Stock solutions of the investigated compounds were prepared in DMSO and then diluted with methanol to a final volume of 1000 µL. An equal volume of a 50 µM DPPH solution in methanol was then added to the prepared mixture. The final concentrations of the test compounds were 25, 50, and 100 µM. After thorough mixing, the samples were incubated in the dark at room temperature for 20 to 60 min. Methanol was used as a blank, and absorbance was measured at 517 nm after incubation. All measurements were performed in triplicate.

[12] = system: B. cereus; assay: Microdilution MIC/MMC with resazurin; assay type: cell-based, Bacillus cereus; settings: B. cereus, compounds 1–8; for MIC: Bacillus cereus, read-out: MIC
Description: as §1, §2, §3, §4, §5

[13] = system: C. albicans ATCC 10231; assay: Microdilution MIC/MMC with resazurin; assay type: cell-based, Candida albicans; settings: C. albicans ATCC 10231, compounds 1–8; for MIC: Candida albicans, ATCC10231, read-out: MIC
Description: as §1, §2, §3, §4, §5

[14] = system: B. pumilus NCTC 8241; assay: Microdilution MIC/MMC with resazurin; assay type: cell-based, Bacillus pumilus; settings: B. pumilus NCTC 8241, compounds 1–8; for MIC: Bacillus pumilus, NCTC8241, read-out: MIC
Description: as §1, §2, §3, §4, §5

[15] = system: B. subtilis ATCC 6633; assay: Microdilution MIC/MMC with resazurin; assay type: cell-based, Bacillus subtilis; settings: B. subtilis ATCC 6633, compounds 1–8; for MIC: Bacillus subtilis, ATCC6633, read-out: MIC
Description: as §1, §2, §3, §4, §5

Row | SMILES | MMC [1] | MIC [1] | MIC [2] | MMC [2] | MMC [3] | MIC [3] | MMC [4] | MIC [4] | MMC [5] | MIC [5] | MMC [6] | MIC [6] | MMC [7] | MIC [7] | MMC [8] | MIC [8] | MMC [9] | MIC [9] | MMC [10] | MIC [10] | further results
1 | O=C(O)C1CSC(=S)N1 (centres unmarked) [Compound 3, 2-Thioxothiazolidine-4-carboxylic Acid] | 2.5 mg/mL | 2500 µg/mL (≈ 15.3 mM) | 2500 µg/mL (≈ 15.3 mM) | 2.5 mg/mL | 5 mg/mL | 2500 µg/mL (≈ 15.3 mM) | 2.5 mg/mL | 2500 µg/mL (≈ 15.3 mM) | 0.625 mg/mL | 625 µg/mL (≈ 3.83 mM) | 0.312 mg/mL | 156 µg/mL (≈ 0.956 mM) | 0.625 mg/mL | 625 µg/mL (≈ 3.83 mM) | 5 mg/mL | 1250 µg/mL (≈ 7.66 mM) | 1.25 mg/mL | 625 µg/mL (≈ 3.83 mM) | 5 mg/mL | 5000 µg/mL (≈ 30.6 mM) | DPPH Scavenging Ability ([11]; 25 µM, 20 min): 1.0 ± 0.3%; DPPH Scavenging Ability ([11]; 25 µM, 60 min): 1.1 ± 0.5%; DPPH Scavenging Ability ([11]; 50 µM, 20 min): 1.9 ± 0.8%; DPPH Scavenging Ability ([11]; 50 µM, 60 min): 2.1 ± 1.1%; DPPH Scavenging Ability ([11]; 100 µM, 20 min): 7.8 ± 1.8%; DPPH Scavenging Ability ([11]; 100 µM, 60 min): 7.9 ± 1.7%; MMC [12]: 2.5 mg/mL; MIC [12]: 2500 µg/mL (≈ 15.3 mM); MMC [13]: 1.25 mg/mL; MIC [13]: 312 µg/mL (≈ 1.91 mM); MMC [14]: 0.625 mg/mL; MIC [14]: 625 µg/mL (≈ 3.83 mM); MMC [15]: 5 mg/mL; MIC [15]: 2500 µg/mL (≈ 15.3 mM)
2 | S=C1NCC(c2ccccc2)O1 (racemic) [Compound 4, rac-5-Phenyl-1,3-oxazolidine-2-thione] | 5 mg/mL | 2500 µg/mL (≈ 13.9 mM) | 2500 µg/mL (≈ 13.9 mM) | 5 mg/mL | 2.5 mg/mL | 2500 µg/mL (≈ 13.9 mM) | 5 mg/mL | 2500 µg/mL (≈ 13.9 mM) | 2.5 mg/mL | 1250 µg/mL (≈ 6.97 mM) | 1.25 mg/mL | 1250 µg/mL (≈ 6.97 mM) | 3.75 mg/mL | 2500 µg/mL (≈ 13.9 mM) | 5 mg/mL | 2500 µg/mL (≈ 13.9 mM) | 5 mg/mL | 2500 µg/mL (≈ 13.9 mM) | >5 mg/mL | > 5000 µg/mL | DPPH Scavenging Ability ([11]; 25 µM, 20 min): 1.2 ± 0.7%; DPPH Scavenging Ability ([11]; 25 µM, 60 min): 1.3 ± 0.5%; DPPH Scavenging Ability ([11]; 50 µM, 20 min): 1.7 ± 0.8%; DPPH Scavenging Ability ([11]; 50 µM, 60 min): 2.0 ± 0.9%; DPPH Scavenging Ability ([11]; 100 µM, 20 min): 3.8 ± 1.2%; DPPH Scavenging Ability ([11]; 100 µM, 60 min): 3.5 ± 1.7%; MMC [12]: 5 mg/mL; MIC [12]: 5000 µg/mL (≈ 27.9 mM); MMC [13]: 5 mg/mL; MIC [13]: 5000 µg/mL (≈ 27.9 mM); MMC [14]: 2.5 mg/mL; MIC [14]: 1250 µg/mL (≈ 6.97 mM); MMC [15]: 5 mg/mL; MIC [15]: 2500 µg/mL (≈ 13.9 mM)
